# Key:
# Assay type in all cases: cell-based
# rat TRPM8 channel = target: T1, rat TRPM8 channel (Rattus norvegicus, UniProt Q8R455); assay: Ca2+ microfluorometry, menthol-induced Ca2+ influx in HEK293 cells expressing rat TRPM8; settings: 100 µM menthol, HEK-rTRPM8; for % Blockade 5 µM: 5 µM compound; for % Blockade 50 µM: 50 µM compound; for IC50: Ca2+ microfluorometry
# T1 construct: expressed in transfected cells; host or cells: HEK293 (stably transfected)
# Protocol: The ability to inhibit menthol-induced Ca^2+ intracellular influx into the cytosol on HEK293 cells heterologously expressing the rat TRPM8 channel was measured and compared to that of AMTB, a well-known TRPM8 antagonist. Representative recordings of fluorescence obtained in microfluorometry experiments for selected compounds are in Supplementary Fig. S3.
# Human embryonic kidney cell line (HEK) stably transfected with rTRPM8 or h-TRPV1 were used as previously described. Briefly, cells were seeded in 96-well plates at a cell density of 30,000 cells 2 days before treatment. Buffer used was HBBS (in mM): 138 NaCl, 5.33 KCl, 1.26 CaCl2, 0.5 MgCl-6H2O, 0.4 MgSO4-7H2O, 4 NaHCO3 0.44 KH2PO4, 0.3 Na2HPO4, pH 7.4. The day of treatment the medium was replaced with 100 µL of the dye loading solution Fluo-4 NW supplemented with probenecid 2.5 mM. After incubation, plates were transferred to a fluorescence plate reader (Polastar BMG). In the experimental protocol, the baseline fluorescence was recorded ([…]) for 3 cycles. After, vehicle, compound at different concentrations and the corresponding antagonist, 10 µM AMTB for TRPM8 or 10 µM Ruthenium Red for TRPV1 were added to the well. Fluorescence intensity was recorded during 7 cycles more. Finally, the agonist 100 µM menthol for TRPM8 or 1 µM capsaicin for TRPV1 was added and fluorescence intensity was recorded during 10 cycles more.
# The degree of inhibition of TRPM8 channel gating was calculated by comparison to calcium increase signal elicited by test substances and menthol at 100 µM. Decrease of menthol signal was expressed as percentage of inhibition (%). All data are expressed as mean ± standard deviation (SD). Each condition was assessed by triplicate (n = 3) in 3 independent experiments (N = 3). Z-factor was calculated in each assay using the following equation: […]. In all the experiments Z-factor was ≥ 0.5. To calculate IC50, normalized responses (%) versus log [µM] were adjusted to a non-linear fit with variable slope, a four-parameter dose–response curve following curve Y = 100/(1 + 10^((Log IC50-X)*HillSlope)) where […].
# [1] = tested on: A549 (lung carcinoma, NSCLC); assay: SRB cytotoxicity assay, A549; settings: 72 h, SRB; for TGI A549: total growth inhibition; for TGI A549 / CC50: unit inferred; for GI50 / CC50: Homo sapiens, A549; for CC50: read-out: LC50 A549
# Protocol: (§1) Human tumor cell lines used in this study were purchased from the ATCC. A-549 (CCL-185), lung carcinoma; HT-29 (HTB-38), colorectal adenocarcinoma; MDA-MB-231 (HTB-26), breast adenocarcinoma; PSN1, pancreas adenocarcinoma.
# (§2) All cell lines were maintained in DMEM (Dulbecco’s Modified Eagle's Medium) culture medium supplemented with 10% FBS (Fetal Bovine Serum), 100 Units/mL penicillin/streptomycin at 37 °C, 5% CO2 and 95% humidity.
# (§3) Triplicate cultures were incubated for 72 h in the presence or absence of test compounds in dose–response curves (10 concentrations, typically ranging from 10 to 0.0026 µg/mL). A colorimetric assay using sulforhodamine B (SRB) was adapted for quantitative measurement of cell growth and cytotoxicity. A more detailed information on this assay is provides in the supplementary information. GI50 is the compound concentration that produces 50% inhibition on cell growth as compared to control cells.
# (§4) In vitro bioassays for the detection of antitumor activity
# (§5) The aim of this assay is to evaluate the in vitro cytostatic (ability to delay or arrest tumor cell growth) or cytotoxic (ability to kill tumor cells) activity of the samples […]
# (§6) Name Nº ATCC Species Tissue Characteristics
# (§7) A549 CCL-185 human lung lung carcinoma (NSCLC)
# (§8) HT29 HTB-38 human colon colorectal adenocarcinoma
# (§9) MDA-MB-231 HTB-26 human breast breast adenocarcinoma
# (§10) PSN1 CRM-CRL-3211 human pancreas pancreas adenocarcinoma […]
# (§11) A colorimetric assay, using Sulforhodamine B (SRB) reaction has been adapted to provide a quantitative measurement of cell growth and viability (following the technique described by Skehan et al. J. Natl. Cancer Inst. 1990, 82, 1107-1112 […]
# (§12) This form of assay employs 96-well cell culture microplates following the standards of the American National Standards Institute and the Society for Laboratory […]
# (§13) used in this study were obtained from the American Type Culture Collection (ATCC) and derive from different types of human cancer.
# (§14) A549, HT29, MDA-MB-231 and PSN1 cells were maintained in Dulbecco’s
# (§15) Modified Eagle Medium (DMEM) supplemented with 10% Fetal Bovine Serum (FBS), 2mM L-glutamine, 100 U/mL penicillin, and 100 U/mL streptomycin at 37 °C, 5% CO2 and 98% humidity. For the experiments, cells were harvested from subconfluent cultures using trypsinization and resuspended in fresh medium before counting and […]
# (§16) A549, HT29, MDA-MB-231 and PSN1 cells were seeded in 96 well microtiter plates, at 5000 cells per well in aliquots of 150 µL, and allowed to attach to the plate surface for 18 hours (overnight) in drug free medium. After that, one control (untreated) plate of each cell line was fixed (as described below) and used for time zero reference value. Culture plates were then treated with test compounds (50 µL aliquots of 4X stock […]
# (§17) solutions in complete culture medium plus 4% DMSO) using ten 2/5 serial dilutions (concentrations ranging from 10 to 0.003 µg/mL) and triplicate cultures (1% final concentration in DMSO). After 72 hours treatment, the antitumor effect was measured by using the SRB methodology: Briefly, cells were washed twice with PBS, fixed for 15 min in 1% glutaraldehyde solution at room temperature, rinsed twice in PBS, and stained in 0.4% SRB solution for 30 min at room temperature. Cells were then rinsed several times with 1% acetic acid solution and air-dried at room temperature. SRB was then extracted in 10 mM trizma base solution and the absorbance measured in an automated spectrophotometric plate reader at 490 nm.
# (§18) Effects on cell growth and survival were estimated by applying the NCI algorithm (Boyd MR and Paull KD. Drug Dev. Res. 1995, 34, 91-109, DOI:10.1002/ddr.430340203). The values obtained in triplicate cultures were fitted by nonlinear regression to a four-parameters logistic curve by nonlinear regression analysis. . Using the absorbance measurements [time zero, (Tz), control growth, (C), and test growth in the presence of drug at the ten concentration levels (Ti)], the […]
# [2] = tested on: HT29 (colorectal adenocarcinoma); assay: SRB cytotoxicity assay, HT29; settings: 72 h, SRB; for TGI HT29: total growth inhibition; for TGI HT29 / CC50: unit inferred; for GI50 / CC50: Homo sapiens, HT-29; for CC50: read-out: LC50 HT29
# Protocol: as §1, §2, §3, §4, §5, §6, §7, §8, §9, §10, §11, §12, §13, §14, §15, §16, §17, §18
# T1 sequence (Q8R455 whole entry): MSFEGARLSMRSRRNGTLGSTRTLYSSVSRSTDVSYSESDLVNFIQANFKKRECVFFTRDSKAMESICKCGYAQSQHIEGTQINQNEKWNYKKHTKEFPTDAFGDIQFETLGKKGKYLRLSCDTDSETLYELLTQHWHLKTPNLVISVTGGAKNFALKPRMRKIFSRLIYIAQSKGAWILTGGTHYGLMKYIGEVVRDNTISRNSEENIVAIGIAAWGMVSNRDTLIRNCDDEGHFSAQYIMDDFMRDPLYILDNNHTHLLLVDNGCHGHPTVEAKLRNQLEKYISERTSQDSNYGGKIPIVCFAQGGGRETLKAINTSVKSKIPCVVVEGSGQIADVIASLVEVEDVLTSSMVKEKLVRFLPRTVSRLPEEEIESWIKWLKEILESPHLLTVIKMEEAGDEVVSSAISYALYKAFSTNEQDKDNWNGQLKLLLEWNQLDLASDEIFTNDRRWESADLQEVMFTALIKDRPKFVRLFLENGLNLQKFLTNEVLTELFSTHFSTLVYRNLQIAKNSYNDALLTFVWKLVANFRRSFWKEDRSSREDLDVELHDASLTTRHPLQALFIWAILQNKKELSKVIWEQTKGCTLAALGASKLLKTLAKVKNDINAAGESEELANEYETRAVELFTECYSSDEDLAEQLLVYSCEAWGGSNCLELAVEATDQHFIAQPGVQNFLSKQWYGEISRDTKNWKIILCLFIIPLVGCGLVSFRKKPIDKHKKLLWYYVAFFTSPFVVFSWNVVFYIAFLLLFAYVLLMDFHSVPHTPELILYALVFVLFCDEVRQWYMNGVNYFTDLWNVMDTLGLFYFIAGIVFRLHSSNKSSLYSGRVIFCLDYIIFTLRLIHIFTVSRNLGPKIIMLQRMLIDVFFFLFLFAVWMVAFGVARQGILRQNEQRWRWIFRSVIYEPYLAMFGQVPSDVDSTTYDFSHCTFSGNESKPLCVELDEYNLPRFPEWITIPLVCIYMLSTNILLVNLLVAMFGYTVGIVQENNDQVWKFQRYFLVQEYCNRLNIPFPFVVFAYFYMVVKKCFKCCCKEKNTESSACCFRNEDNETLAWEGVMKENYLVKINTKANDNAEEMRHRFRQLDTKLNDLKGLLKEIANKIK
compound,measurement,setting,value
"C[C@@H]1C(=O)N(C[C@H](Cc2ccccc2)NC(=O)OCc2ccccc2)[C@]1(Cc1ccccc1)C(=O)OCc1ccccc1 [Compound 24a, 4S-Benzyl-4-benzyloxycarbonyl-3S-methyl-1-[(2′S-benzyloxycarbonylamino-3′-phenyl)prop-1′-yl]-2-oxoazetidine]",% Blockade 5 µM,rat TRPM8 channel,65.4 ± 6.4%
same,% Blockade 50 µM,rat TRPM8 channel,110.7 ± 11.7%
same,IC50,rat TRPM8 channel,2.4 ± 1.2 µM
same,TGI A549,[1],> 17.3 µM
same,GI50,[1],3.29 µM
same,CC50,[1],> 17.3 µM
same,TGI HT29,[2],> 17.3 µM
same,GI50,[2],4.16 µM
same,CC50,[2],> 17.3 µM
"C[C@@H]1C(=O)N(C[C@@H](Cc2ccccc2)NC(=O)OCc2ccccc2)[C@]1(Cc1ccccc1)C(=O)OCc1ccccc1 [Compound 29a, 4S-Benzyl-4-benzyloxycarbonyl-3S-methyl-1-[(2′R-benzyloxycarbonylamino-3′-phenyl)prop-1′-yl]-2-oxoazetidine]",% Blockade 5 µM,rat TRPM8 channel,97.2 ± 4.8%
same,% Blockade 50 µM,rat TRPM8 channel,100.0 ± 5.0%
same,IC50,rat TRPM8 channel,0.4 µM
same,TGI A549,[1],> 17.3 µM
same,GI50,[1],5.9 µM
same,CC50,[1],> 17.3 µM
same,TGI HT29,[2],> 17.3 µM
same,GI50,[2],7.11 µM
same,CC50,[2],> 17.3 µM

# From PMC7447632, “Highly functionalized β-lactams and 2-ketopiperazines as TRPM8 antagonists with antiallodynic activity” (Scientific Reports, 2020)
